In PMC5886804 (Nature, 2018) one finds EC50 and stoichiometry N data, which are given here for two compounds.

In experiment [1] the target is MmTPC1 Leu11Ala/Ile12Ala (plasma membrane-targeting, considered as the wild type channel) (Mus musculus, UniProt Q9EQJ0, I12A/L11A/R540Q). Briefly: inside-out patch clamp, HEK293 cells. In kind it is cell-based. Background: The patch-clamp technique gives a direct electrical read-out from membranes.
Experiment [2] addresses Mouse TPC1 (two-pore channel 1) (mouse) (UniProt Q9EQJ0). Briefly: cryo-EM structure.

A word on the EC50: it is the midpoint of the concentration-response curve. A higher EC50 goes with a need for much substance. In turn, `CCCCCCCC(=O)OC[C@H](COP(=O)(O)O[C@@H]1[C@H](O)[C@H](OP(=O)(O)O)[C@@H](O)[C@H](OP(=O)(O)O)[C@H]1O)OC(=O)CCCCCCC` [PtdIns(3,5)P2] had an EC50 in experiment [1] of roughly 145 nM.

Broadly, the stoichiometry N is the number of molecules, sites or subunits per partner or assembly. The compound “Mouse TPC1 (two-pore channel 1) (from UniProt Q9EQJ0-1 1-817) (natural protein)” returned a stoichiometry N in experiment [2] of 2.
